From the supplement of paper PMC5579334
± gives the standard deviation of the averaged measurements.

Assays:
[1] = tested on: HSC1 (primary human Schwann cells); assay: drug sensitivity score (DSS, CellTox-Green cytotoxicity, 72 h) (DSS (dimensionless)); higher = more cytotoxic; extreme values may be limits of the assay
Method in brief: (§1)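 MPNST cell lines and primary human Schwann cells were grown for 72 h at 37 °C in 384-well plates containing five 10-fold compound dilutions. CellTox-Green, added before seeding at a final 1:1000 dilution, gave fluorescence from DNA released by disrupted cells, and signals were scaled to vehicle and positive-control wells. Curves were fitted with a four-parameter logistic model. Drug sensitivity score and relative IC50 come from these fits, with IC50 censored at the top concentration.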

[2] = tested on: HSC2 (primary human Schwann cells); assay: as above
Method in brief: as §1

HS-PSS [3] = assay: as above
Method in brief: as §1

S1507-2 [4] = assay: as above
Method in brief: as §1

ST8814 [5] = assay: as above
Method in brief: as §1

STS26T [6] = assay: as above
Method in brief: as §1

[7] = tested on: HSC1 (primary human Schwann cells); assay: % inhibition of CellTiter-Glo viability at highest tested concentration (72 h), relative to DMSO and benzethonium chloride controls; higher = more inhibition
Method in brief: (§2)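 For this screen, 384-well plates were preprinted with each compound at five concentrations in 10-fold steps and seeded with MPNST cell lines or primary human Schwann cells at 750–1000 cells per well. Incubation lasted 72 h at 37 °C, 5% CO2, and CellTiter-Glo ATP luminescence, scaled between vehicle and positive-control wells and averaged over duplicates where available, served as viability. Logistic fits with four parameters were applied. Relative IC50 (censored at the top concentration) and drug sensitivity score derive from these fits, and percent inhibition is at the top concentration.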

[8] = tested on: HSC2 (primary human Schwann cells); assay: as above
Method in brief: as §2

HS-PSS [9] = assay: as above
Method in brief: as §2

HS-Sch-2 [10] = assay: as above
Method in brief: as §2

S1507-2 [11] = assay: as above
Method in brief: as §2

S462 [12] = assay: as above
Method in brief: as §2

ST8814 [13] = assay: as above
Method in brief: as §2

STS26T [14] = assay: as above
Method in brief: as §2

YST-1 [15] = assay: as above
Method in brief: as §2

[16] = tested on: HSC1 (primary human Schwann cells); assay: drug sensitivity score (DSS, CellTiter-Glo viability, 72 h) (DSS (dimensionless)); higher = more sensitive; extreme values may be limits of the assay
Method in brief: as §2

[17] = tested on: HSC2 (primary human Schwann cells); assay: as above
Method in brief: as §2

HS-PSS [18] = assay: as above
Method in brief: as §2

HS-Sch-2 [19] = assay: as above
Method in brief: as §2

S1507-2 [20] = assay: as above
Method in brief: as §2

S462 [21] = assay: as above
Method in brief: as §2

ST8814 [22] = assay: as above
Method in brief: as §2

STS26T [23] = assay: as above
Method in brief: as §2

YST-1 [24] = assay: as above
Method in brief: as §2

Structure (SMILES): CC(C)C[C@@H](C(=O)N[C@H](C(=O)OC1CCCC1)c1ccccc1)[C@H](O)C(=O)NO [Tosedostat] (max concentration tested 10000 nM)
- drug sensitivity score [1]: 0
- drug sensitivity score [2]: 0
- drug sensitivity score (HS-PSS [3]): 0
- drug sensitivity score (S1507-2 [4]): 10.4 ± 9.7
- drug sensitivity score (ST8814 [5]): 2.29
- drug sensitivity score (STS26T [6]): 28.6
- % inhibition [7]: 50.1%
- % inhibition [8]: 54.6%
- % inhibition (HS-PSS [9]): 25%
- % inhibition (HS-Sch-2 [10]): 64.9%
- % inhibition (S1507-2 [11]): 26.2 ± 6.2%
- % inhibition (S462 [12]): 55 ± 3.6%
- % inhibition (ST8814 [13]): 28%
- % inhibition (STS26T [14]): 74.9%
- % inhibition (YST-1 [15]): 28.4%
- drug sensitivity score [16]: 9.82
- drug sensitivity score [17]: 12.3
- drug sensitivity score (HS-PSS [18]): 0.92
- drug sensitivity score (HS-Sch-2 [19]): 11
- drug sensitivity score (S1507-2 [20]): 3.83 ± 0.36
- drug sensitivity score (S462 [21]): 8.03 ± 0.91
- drug sensitivity score (ST8814 [22]): 2.24
- drug sensitivity score (STS26T [23]): 18.2
- drug sensitivity score (YST-1 [24]): 4.41

Structure (SMILES): COc1cc2c(cc1-c1c(C)noc1C)ncc1[nH]c(=O)n([C@H](C)c3ccccn3)c12 [I-BET151] (max concentration tested 10000 nM)
- drug sensitivity score [1]: 0.0349
- drug sensitivity score [2]: 0
- drug sensitivity score (HS-PSS [3]): 0
- drug sensitivity score (S1507-2 [4]): 6.26 ± 2.9
- drug sensitivity score (ST8814 [5]): 3.3
- drug sensitivity score (STS26T [6]): 0
- % inhibition [7]: 63.4%
- % inhibition [8]: 67.2%
- % inhibition (HS-PSS [9]): 58.5%
- % inhibition (HS-Sch-2 [10]): 69.1%
- % inhibition (S1507-2 [11]): 80.9 ± 2.5%
- % inhibition (S462 [12]): 54.1 ± 0.65%
- % inhibition (ST8814 [13]): 69.7%
- % inhibition (STS26T [14]): 39.3%
- % inhibition (YST-1 [15]): 63.4%
- drug sensitivity score [16]: 7.53
- drug sensitivity score [17]: 7.44
- drug sensitivity score (HS-PSS [18]): 5.14
- drug sensitivity score (HS-Sch-2 [19]): 7.97
- drug sensitivity score (S1507-2 [20]): 8.57 ± 0.91
- drug sensitivity score (S462 [21]): 5.52 ± 1.1
- drug sensitivity score (ST8814 [22]): 7.98
- drug sensitivity score (STS26T [23]): 3.63
- drug sensitivity score (YST-1 [24]): 7.27

Structure (SMILES): O=C(CCBr)N1CCN(C(=O)CCBr)CC1 [Pipobroman] (max concentration tested 10000 nM)
- drug sensitivity score [1]: 0
- drug sensitivity score [2]: 0
- drug sensitivity score (HS-PSS [3]): 0
- drug sensitivity score (S1507-2 [4]): 0
- drug sensitivity score (ST8814 [5]): 0
- drug sensitivity score (STS26T [6]): 0
- % inhibition [7]: 0.741%
- % inhibition [8]: 0.945%
- % inhibition (HS-PSS [9]): 1.73%
- % inhibition (HS-Sch-2 [10]): 9.93%
- % inhibition (S1507-2 [11]): -11.3 ± 2.3%
- % inhibition (S462 [12]): -17 ± 7.2%
- % inhibition (ST8814 [13]): -3.56%
- % inhibition (STS26T [14]): -2.55%
- % inhibition (YST-1 [15]): 4.98%
- drug sensitivity score [16]: 0
- drug sensitivity score [17]: 0
- drug sensitivity score (HS-PSS [18]): 0
- drug sensitivity score (HS-Sch-2 [19]): 0
- drug sensitivity score (S1507-2 [20]): 0
- drug sensitivity score (S462 [21]): 0
- drug sensitivity score (ST8814 [22]): 0
- drug sensitivity score (STS26T [23]): 0
- drug sensitivity score (YST-1 [24]): 0

Structure (SMILES): C=CCNC1=C2C[C@@H](C)C[C@H](OC)[C@H](O)[C@@H](C)/C=C(\C)[C@H](OC(N)=O)[C@@H](OC)/C=C\C=C(/C)C(=O)NC(=CC1=O)C2=O [Tanespimycin] (max concentration tested 10000 nM)
- drug sensitivity score [1]: 17.9
- drug sensitivity score [2]: 19.1
- drug sensitivity score (HS-PSS [3]): 5.08
- drug sensitivity score (S1507-2 [4]): 14.6 ± 1.2
- drug sensitivity score (ST8814 [5]): 7.63
- drug sensitivity score (STS26T [6]): 14
- % inhibition [7]: 96.8%
- % inhibition [8]: 98.2%
- % inhibition (HS-PSS [9]): 89.1%
- % inhibition (HS-Sch-2 [10]): 100%
- % inhibition (S1507-2 [11]): 98 ± 0.1%
- % inhibition (S462 [12]): 99.25 ± 0.39%
- % inhibition (ST8814 [13]): 96.5%
- % inhibition (STS26T [14]): 96.1%
- % inhibition (YST-1 [15]): 75.3%
- drug sensitivity score [16]: 15.9
- drug sensitivity score [17]: 16.7
- drug sensitivity score (HS-PSS [18]): 19
- drug sensitivity score (HS-Sch-2 [19]): 22.4
- drug sensitivity score (S1507-2 [20]): 20.8 ± 0.74
- drug sensitivity score (S462 [21]): 17.9 ± 1.3
- drug sensitivity score (ST8814 [22]): 21
- drug sensitivity score (STS26T [23]): 22.2
- drug sensitivity score (YST-1 [24]): 22.6

Structure (SMILES): CCCCC(=O)OCC(=O)[C@]1(O)Cc2c(O)c3c(c(O)c2[C@@H](O[C@H]2C[C@H](NC(=O)C(F)(F)F)[C@H](O)[C@H](C)O2)C1)C(=O)c1c(OC)cccc1C3=O [Valrubicin] (max concentration tested 5000 nM)
- drug sensitivity score [1]: 0
- drug sensitivity score [2]: 0
- drug sensitivity score (HS-PSS [3]): 0
- drug sensitivity score (S1507-2 [4]): 0.125 ± 0.18
- drug sensitivity score (ST8814 [5]): 0
- drug sensitivity score (STS26T [6]): 0
- % inhibition [7]: 95.1%
- % inhibition [8]: 98.5%
- % inhibition (HS-PSS [9]): 97.5%
- % inhibition (HS-Sch-2 [10]): 101%
- % inhibition (S1507-2 [11]): 92.5 ± 2.8%
- % inhibition (S462 [12]): 94.14 ± 0.67%
- % inhibition (ST8814 [13]): 97.2%
- % inhibition (STS26T [14]): 97.7%
- % inhibition (YST-1 [15]): 100%
- drug sensitivity score [16]: 14
- drug sensitivity score [17]: 14.1
- drug sensitivity score (HS-PSS [18]): 11.7
- drug sensitivity score (HS-Sch-2 [19]): 14.3
- drug sensitivity score (S1507-2 [20]): 10.19 ± 0.1
- drug sensitivity score (S462 [21]): 14.22 ± 0.059
- drug sensitivity score (ST8814 [22]): 13.6
- drug sensitivity score (STS26T [23]): 13.5
- drug sensitivity score (YST-1 [24]): 19.3

Structure (SMILES): Cc1ccc(-c2cc(C(F)(F)F)nn2-c2ccc(S(N)(=O)=O)cc2)cc1 [Celecoxib] (max concentration tested 10000 nM)
- drug sensitivity score [1]: 0
- drug sensitivity score [2]: 0
- drug sensitivity score (HS-PSS [3]): 0
- drug sensitivity score (S1507-2 [4]): 0
- drug sensitivity score (ST8814 [5]): 0
- drug sensitivity score (STS26T [6]): 0
- % inhibition [7]: 11.3%
- % inhibition [8]: 3.55%
- % inhibition (HS-PSS [9]): -9.36%
- % inhibition (HS-Sch-2 [10]): -1.87%
- % inhibition (S1507-2 [11]): -6.68 ± 15%
- % inhibition (S462 [12]): 0.832 ± 4.7%
- % inhibition (ST8814 [13]): -6.53%
- % inhibition (STS26T [14]): -2%
- % inhibition (YST-1 [15]): 4.7%
- drug sensitivity score [16]: 0.156
- drug sensitivity score [17]: 0
- drug sensitivity score (HS-PSS [18]): 0
- drug sensitivity score (HS-Sch-2 [19]): 0
- drug sensitivity score (S1507-2 [20]): 0
- drug sensitivity score (S462 [21]): 0
- drug sensitivity score (ST8814 [22]): 0
- drug sensitivity score (STS26T [23]): 0
- drug sensitivity score (YST-1 [24]): 0

Structure (SMILES): CNC(=O)c1cc(Oc2ccc(NC(=O)Nc3ccc(Cl)c(C(F)(F)F)c3)cc2)ccn1 [Sorafenib] (max concentration tested 1000 nM)
- drug sensitivity score [1]: 0
- drug sensitivity score [2]: 0
- drug sensitivity score (HS-PSS [3]): 0
- drug sensitivity score (S1507-2 [4]): 0
- drug sensitivity score (ST8814 [5]): 0
- drug sensitivity score (STS26T [6]): 0
- % inhibition [7]: -5.93%
- % inhibition [8]: -21.1%
- % inhibition (HS-PSS [9]): -0.19%
- % inhibition (HS-Sch-2 [10]): -11.4%
- % inhibition (S1507-2 [11]): -6.35 ± 3.5%
- % inhibition (S462 [12]): -1.24 ± 2.1%
- % inhibition (ST8814 [13]): -4.54%
- % inhibition (STS26T [14]): -3.72%
- % inhibition (YST-1 [15]): 11.4%
- drug sensitivity score [16]: 0
- drug sensitivity score [17]: 0
- drug sensitivity score (HS-PSS [18]): 0
- drug sensitivity score (HS-Sch-2 [19]): 0
- drug sensitivity score (S1507-2 [20]): 0
- drug sensitivity score (S462 [21]): 0
- drug sensitivity score (ST8814 [22]): 0
- drug sensitivity score (STS26T [23]): 0
- drug sensitivity score (YST-1 [24]): 0
